From PubChem BioAssay (NCI)
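Values below derive from 48-hour exposures of cells grown in 96-well plates, with endpoints linearly interpolated between the two concentrations bracketing the appropriate inhibition level. The concentration for full growth arrest is given as TGI.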

Assays:
Test in all cases: growth of human tumour cells (NCI), 48 h
OVCAR-4 ovarian = system: OVCAR-4 ovarian
NCI-H522 lung = system: NCI-H522 lung
OVCAR-5 ovarian = system: OVCAR-5 ovarian
SF-268 CNS = system: SF-268 CNS
786-0 renal = system: 786-0 renal
LOX IMVI melanoma = system: LOX IMVI melanoma
OVCAR-3 ovarian = system: OVCAR-3 ovarian
MALME-3M melanoma = system: MALME-3M melanoma
PC-3 prostate = system: PC-3 prostate
UACC-257 melanoma = system: UACC-257 melanoma
K-562 leukemia = system: K-562 leukemia
SK-MEL-28 melanoma = system: SK-MEL-28 melanoma
HT29 colon = system: HT29 colon
MDA-N = system: MDA-N
IGROV1 ovarian = system: IGROV1 ovarian
RPMI-8226 leukemia = system: RPMI-8226 leukemia
SW-620 colon = system: SW-620 colon
SNB-19 CNS = system: SNB-19 CNS
SF-295 CNS = system: SF-295 CNS
MDA-MB-435 = system: MDA-MB-435
U251 CNS = system: U251 CNS
NCI-H23 lung = system: NCI-H23 lung
HCT-15 colon = system: HCT-15 colon
SF-539 CNS = system: SF-539 CNS
M14 melanoma = system: M14 melanoma
NCI-H460 lung = system: NCI-H460 lung
SR leukemia = system: SR leukemia
A549 NSCLC = system: A549 NSCLC
HS 578T breast = system: HS 578T breast
TK-10 renal = system: TK-10 renal
EKVX NSCLC = system: EKVX NSCLC
A498 renal = system: A498 renal
HCT-116 colon = system: HCT-116 colon
OVCAR-8 ovarian = system: OVCAR-8 ovarian
DU-145 prostate = system: DU-145 prostate
HL-60(TB) leukemia = system: HL-60(TB) leukemia
SN12C renal = system: SN12C renal
T-47D breast = system: T-47D breast
SNB-75 CNS = system: SNB-75 CNS
MCF7 breast = system: MCF7 breast
RXF 393 renal = system: RXF 393 renal
SK-MEL-5 melanoma = system: SK-MEL-5 melanoma
CCRF-CEM leukemia = system: CCRF-CEM leukemia
NCI-H226 lung = system: NCI-H226 lung
HOP-92 NSCLC = system: HOP-92 NSCLC
NCI/ADR-RES ovarian = system: NCI/ADR-RES ovarian
HCC-2998 colon = system: HCC-2998 colon
HOP-62 NSCLC = system: HOP-62 NSCLC
MOLT-4 leukemia = system: MOLT-4 leukemia
ACHN renal = system: ACHN renal
UO-31 renal = system: UO-31 renal
MDA-MB-231 breast = system: MDA-MB-231 breast
KM12 colon = system: KM12 colon
COLO 205 colon = system: COLO 205 colon
UACC-62 melanoma = system: UACC-62 melanoma
CAKI-1 renal = system: CAKI-1 renal
SK-OV-3 ovarian = system: SK-OV-3 ovarian
SK-MEL-2 melanoma = system: SK-MEL-2 melanoma

SMILES: CN(C)C1(C(=O)O)CC1
- TGI (OVCAR-4 ovarian): > 100 µM
- TGI (NCI-H522 lung): > 100 µM
- TGI (OVCAR-5 ovarian): > 100 µM
- TGI (SF-268 CNS): > 100 µM
- TGI (786-0 renal): > 100 µM
- TGI (LOX IMVI melanoma): > 100 µM
- TGI (OVCAR-3 ovarian): > 100 µM
- TGI (MALME-3M melanoma): > 100 µM
- TGI (PC-3 prostate): > 100 µM
- TGI (UACC-257 melanoma): > 100 µM
- TGI (K-562 leukemia): > 100 µM
- TGI (SK-MEL-28 melanoma): > 100 µM
- TGI (HT29 colon): > 100 µM
- TGI (MDA-N): > 100 µM
- TGI (IGROV1 ovarian): > 100 µM
- TGI (RPMI-8226 leukemia): > 100 µM
- TGI (SW-620 colon): > 100 µM
- TGI (SNB-19 CNS): > 100 µM
- TGI (SF-295 CNS): > 100 µM
- TGI (MDA-MB-435): > 100 µM
- TGI (U251 CNS): > 100 µM
- TGI (NCI-H23 lung): > 100 µM
- TGI (HCT-15 colon): > 100 µM
- TGI (SF-539 CNS): > 100 µM
- TGI (M14 melanoma): > 100 µM
- TGI (NCI-H460 lung): > 100 µM
- TGI (SR leukemia): > 100 µM
- TGI (A549 NSCLC): > 100 µM
- TGI (HS 578T breast): > 100 µM
- TGI (TK-10 renal): > 100 µM
- TGI (EKVX NSCLC): > 100 µM
- TGI (A498 renal): > 100 µM
- TGI (HCT-116 colon): > 100 µM
- TGI (OVCAR-8 ovarian): > 100 µM
- TGI (DU-145 prostate): > 100 µM
- TGI (HL-60(TB) leukemia): > 100 µM
- TGI (SN12C renal): > 100 µM
- TGI (T-47D breast): > 100 µM
- TGI (SNB-75 CNS): > 100 µM
- TGI (MCF7 breast): > 100 µM
- TGI (RXF 393 renal): > 100 µM
- TGI (SK-MEL-5 melanoma): > 100 µM
- TGI (CCRF-CEM leukemia): > 100 µM
- TGI (NCI-H226 lung): > 100 µM
- TGI (HOP-92 NSCLC): > 100 µM
- TGI (NCI/ADR-RES ovarian): > 100 µM
- TGI (HCC-2998 colon): > 100 µM
- TGI (HOP-62 NSCLC): > 100 µM
- TGI (MOLT-4 leukemia): > 100 µM
- TGI (ACHN renal): > 100 µM

SMILES: OC(c1ccsc1)c1cc2ccccc2s1 (stereo unspecified)
- TGI (OVCAR-4 ovarian): > 10 µM
- TGI (NCI-H522 lung): > 10 µM
- TGI (OVCAR-5 ovarian): > 10 µM
- TGI (SF-268 CNS): > 10 µM
- TGI (786-0 renal): > 10 µM
- TGI (LOX IMVI melanoma): > 10 µM
- TGI (OVCAR-3 ovarian): > 10 µM
- TGI (PC-3 prostate): > 10 µM
- TGI (UACC-257 melanoma): > 10 µM
- TGI (K-562 leukemia): > 10 µM
- TGI (SK-MEL-28 melanoma): > 10 µM
- TGI (UO-31 renal): > 10 µM
- TGI (HT29 colon): > 10 µM
- TGI (MDA-N): > 10 µM
- TGI (IGROV1 ovarian): > 10 µM
- TGI (RPMI-8226 leukemia): > 10 µM
- TGI (MDA-MB-231 breast): > 10 µM
- TGI (SW-620 colon): > 10 µM
- TGI (KM12 colon): > 10 µM
- TGI (SNB-19 CNS): > 10 µM
- TGI (SF-295 CNS): > 10 µM
- TGI (MDA-MB-435): > 10 µM
- TGI (U251 CNS): > 10 µM
- TGI (NCI-H23 lung): > 10 µM
- TGI (HCT-15 colon): > 10 µM
- TGI (SF-539 CNS): > 10 µM
- TGI (COLO 205 colon): > 10 µM
- TGI (M14 melanoma): > 10 µM
- TGI (NCI-H460 lung): > 10 µM
- TGI (SR leukemia): > 10 µM
- TGI (A549 NSCLC): > 10 µM
- TGI (HS 578T breast): > 10 µM
- TGI (TK-10 renal): > 10 µM
- TGI (EKVX NSCLC): > 10 µM
- TGI (HCT-116 colon): > 10 µM
- TGI (OVCAR-8 ovarian): > 10 µM
- TGI (DU-145 prostate): > 10 µM
- TGI (UACC-62 melanoma): > 10 µM
- TGI (HL-60(TB) leukemia): > 10 µM
- TGI (CAKI-1 renal): > 10 µM
- TGI (SN12C renal): > 10 µM
- TGI (T-47D breast): > 10 µM
- TGI (SNB-75 CNS): > 10 µM
- TGI (MCF7 breast): > 10 µM
- TGI (SK-OV-3 ovarian): > 10 µM
- TGI (RXF 393 renal): > 10 µM
- TGI (SK-MEL-2 melanoma): > 10 µM
- TGI (SK-MEL-5 melanoma): > 10 µM
- TGI (CCRF-CEM leukemia): > 10 µM
- TGI (NCI-H226 lung): > 10 µM
- TGI (HOP-92 NSCLC): > 10 µM
- TGI (NCI/ADR-RES ovarian): > 10 µM
- TGI (HCC-2998 colon): > 10 µM
- TGI (HOP-62 NSCLC): > 10 µM
- TGI (MOLT-4 leukemia): > 10 µM
- TGI (ACHN renal): > 10 µM
